Data as given in US20230116080A1, “METHOD FOR CONTROLLING THE GROWTH OF UNDESIRABLE VEGETATION” (UPL Limited, priority 2021, published 2023).

System: weedy Eleusine indica
Experiment: Post-emergence herbicidal efficacy of L-glufosinate, other herbicides and their combinations in greenhouse trials (observed control vs Colby expected)
Type: in vivo
Details: for Control %: Table 1
Protocol: Evaluation of Post-Emergence Herbicidal Activity of Composition Under […]
Greenhouse trials were carried out to evaluate the efficacy of the combination of L-glufosinate and the other herbicides on weedy Eleusine indica.
The soil used was sandy clay loam—Sand: 68.0%; Silt: 8.0%; Clay: 24.0%.
All treatments were in 3 replications per treatment with a spray volume of […].
The expected efficacy of a combination of L-glufosinate and the other herbicides was calculated using the well-established Colby method. Any difference between the observed and “expected” efficacy could be attributed to synergy between the two compounds.
In the Colby method, the expected (or predicted) response of a combination of herbicides is calculated by taking the product of the observed response for each individual component of the combination when applied alone, divided by 100, and subtracting this value from the sum of the observed response for each component when applied alone. An unexpected enhancement in efficacy of the combination is then determined by comparing the observed response of the combination to the expected (or predicted) response as calculated from the observed response of each individual component alone. If the observed response of the combination is greater than the expected (or predicted) response, or stated conversely, if the difference between the observed and expected response is greater than zero, then the combination is said to be synergistic or unexpectedly effective (Colby, S. R., Weeds, 1967(15), p. 20-22). The Colby method requires only a single dose of each herbicide applied alone and the mixture of both doses. The formula used to calculate the expected efficacy (EE) which was compared with the observed efficacy (OE) to determine the efficacy of the present invention is explained herein below:
The expected efficacy for a combination of two active ingredients is as follows:
The expected efficacy for a combination of three active ingredients is as follows:
The percentage efficacy was calculated after 7, 14, 21, 28, 35 days of applications (DAA). The target weed was weedy Eleusine indica, and the concentration of the herbicide and the results are recorded in the table 1 below:
The percentage efficacy was calculated after 7 and 35 days of application (DAA). The target weed was weedy Eleusine indica, and the concentration of the herbicide and the results are recorded in the table 2 below:
The percentage efficacy was calculated after 3, 7, 14, 21, 28, 35 days of application (DAA). The target weed was weedy Eleusine indica, and the concentration of the herbicide and the results are recorded in the table 3 below:
The target weed was weedy Eleusine indica, and the concentration of the herbicide and the results are recorded in the table 4 below:
The percentage efficacy was calculated after 7, 14, 21, 28 and 35 days of application (DAA). The target weed was weedy Eleusine indica, and the concentration of the herbicide and the results are recorded in the table 5 below:
The percentage efficacy was calculated after 3, 7, 28, 35 days of application (DAA). The target weed was weedy Eleusine indica, and the concentration of the herbicide and the results are recorded in the table 6 below: […]

[1] = 7 DAA, dose a.i. g/h: L-glufosinate 150, oxyfluorfen 107.1, imazethapyr 75, carfentrazone 7.5
[2] = 14 DAA, dose a.i. g/h: L-glufosinate 150, oxyfluorfen 107.1, imazethapyr 75, carfentrazone 7.5
[3] = 21 DAA, dose a.i. g/h: L-glufosinate 150, oxyfluorfen 107.1, imazethapyr 75, carfentrazone 7.5
[4] = 28 DAA, dose a.i. g/h: L-glufosinate 150, oxyfluorfen 107.1, imazethapyr 75, carfentrazone 7.5
[5] = 35 DAA, dose a.i. g/h: L-glufosinate 150, oxyfluorfen 107.1, imazethapyr 75, carfentrazone 7.5
[6] = Table 2, 7 DAA, g ai/h: L-glufosinate 150, glyphosate 379
[7] = Table 2, 35 DAA, g ai/h: L-glufosinate 150, glyphosate 379
[8] = Table 3, 3 DAA, g ai/h: L-glufosinate 150, flumioxazin 30
[9] = Table 3, 7 DAA, g ai/h: L-glufosinate 150, flumioxazin 30
[10] = Table 3, 14 DAA, g ai/h: L-glufosinate 150, flumioxazin 30
[11] = Table 3, 21 DAA, g ai/h: L-glufosinate 150, flumioxazin 30
[12] = Table 3, 28 DAA, g ai/h: L-glufosinate 150, flumioxazin 30
[13] = Table 3, 35 DAA, g ai/h: L-glufosinate 150, flumioxazin 30
[14] = Table 4, 3 DAA, g ai/h: L-glufosinate 150, 2,4-D 204
[15] = Table 4, 7 DAA, g ai/h: L-glufosinate 150, 2,4-D 204
[16] = Table 4, 14 DAA, g ai/h: L-glufosinate 150, 2,4-D 204
[17] = Table 4, 21 DAA, g ai/h: L-glufosinate 150, 2,4-D 204
[18] = Table 4, 28 DAA, g ai/h: L-glufosinate 150, 2,4-D 204
[19] = Table 4, 35 DAA, g ai/h: L-glufosinate 150, 2,4-D 204
[20] = Table 5, 7 DAA, g ai/h: L-glufosinate 150, triclopyr 288
[21] = Table 5, 14 DAA, g ai/h: L-glufosinate 150, triclopyr 288
[22] = Table 5, 21 DAA, g ai/h: L-glufosinate 150, triclopyr 288
[23] = Table 5, 28 DAA, g ai/h: L-glufosinate 150, triclopyr 288
[24] = Table 5, 35 DAA, g ai/h: L-glufosinate 150, triclopyr 288
[25] = Table 6, 3 DAA, g ai/h: L-glufosinate 150, clethodim 45
[26] = Table 6, 7 DAA, g ai/h: L-glufosinate 150, clethodim 45
[27] = Table 6, 28 DAA, g ai/h: L-glufosinate 150, clethodim 45
[28] = Table 6, 35 DAA, g ai/h: L-glufosinate 150, clethodim 45
[29] = Table 7, 7 DAA, g ai/h: L-glufosinate 150, haloxyfop 50

Which Control % [1] does the source give for `CP(=O)(O)CC[C@H](N)C(=O)O` [L-glufosinate] here?
The Control % was 43.3%.

And the Control % [2]?
The Control % was 41.3%.

What about the Control % [3] of the same molecule?
Its Control % is 37.3%.

What about the Control % [4] of the same molecule?
The Control % was 28.3%.

And the Control % [5]?
Its Control % is 25.3%.

And the “% control” value [6]?
Its value is 50.7%.

What about the “% control” value [7] of the same molecule?
The value was 54.3%.

And the “% control” value [8]?
The value was 12.3%.

And the “% control” value [9]?
The value was 50.7%.

And the “% control” value [10]?
Its value is 65.0%.

What about the “% control” value [11] of the same molecule?
Its value is 64.3%.

And the “% control” value [12]?
The value was 59.3%.

What about the “% control” value [13] of the same molecule?
Its value is 54.3%.

What about the “% control” value [14] of the same molecule?
Its value is 12.3%.

And the “% control” value [15]?
The value was 50.7%.

What about the “% control” value [16] of the same molecule?
Its value is 65.0%.

What about the “% control” value [17] of the same molecule?
Its value is 64.3%.

And the “% control” value [18]?
Its value is 59.3%.

What about the “% control” value [19] of the same molecule?
The value was 54.3%.

And the “% control” value [20]?
Its value is 50.7%.

And the “% control” value [21]?
The value was 65.0%.

What about the “% control” value [22] of the same molecule?
The value was 64.3%.

What about the “% control” value [23] of the same molecule?
The value was 59.3%.

And the “% control” value [24]?
The value was 54.3%.

What about the “% control” value [25] of the same molecule?
Its value is 12.3%.

What about the “% control” value [26] of the same molecule?
Its value is 50.7%.

What about the “% control” value [27] of the same molecule?
Its value is 59.3%.

And the “% control” value [28]?
Its value is 54.3%.

What about the “% control” value [29] of the same molecule?
The value was 50.7%.

How did the “% control” value [29] turn out when `CC(Oc1ccc(Oc2ncc(C(F)(F)F)cc2Cl)cc1)C(=O)O` (stereo not shown) [Haloxyfop, haloxyfop] was run?
The value was 25%.

How did the “% control” value [6] turn out when `O=C(O)CNCP(=O)(O)O` [Glyphosate, glyphosate] was run?
Its value is 28.3%.

And the “% control” value [7]?
Its value is 81.7%.

For `Cc1nn(-c2cc(CC(Cl)C(=O)O)c(Cl)cc2F)c(=O)n1C(F)F` (stereo not shown) [Carfentrazone, carfentrazone], which Control % [1] is on record?
The Control % was 14%.

What about the Control % (7 DAA, dose a.i. g/h: carfentrazone 9.0, alone or with L-glufosinate 150) of the same molecule?
Its Control % is 16.7%.

And the Control % [2]?
Its Control % is 12.3%.

What about the Control % (14 DAA, dose a.i. g/h: carfentrazone 9.0, alone or with L-glufosinate 150) of the same molecule?
The Control % was 16.7%.

And the Control % [3]?
The Control % was 11%.

And the Control % (21 DAA, dose a.i. g/h: carfentrazone 9.0, alone or with L-glufosinate 150)?
The Control % was 14%.

What about the Control % [4] of the same molecule?
The Control % was 7.7%.

What about the Control % (28 DAA, dose a.i. g/h: carfentrazone 9.0, alone or with L-glufosinate 150) of the same molecule?
The Control % was 12.3%.

And the Control % [5]?
The Control % was 0%.

What about the Control % (35 DAA, dose a.i. g/h: carfentrazone 9.0, alone or with L-glufosinate 150) of the same molecule?
Its Control % is 6.7%.

What does the source list for `C#CCN1C(=O)COc2cc(F)c(N3C(=O)C4=C(CCCC4)C3=O)cc21` [Flumioxazin, flumioxazin]?
% control [8]: 5.0%; % control [9]: 28.3%; % control [10]: 21.7%; % control [11]: 10%; % control [12]: 5%; % control [13]: 0%

With `CCOc1cc(Oc2ccc(C(F)(F)F)cc2Cl)ccc1[N+](=O)[O-]` [Oxyfluorfen, oxyfluorfen] as the molecule, how does the Control % [1] read?
The Control % was 44%.

What about the Control % [2] of the same molecule?
The Control % was 40%.

And the Control % [3]?
Its Control % is 37%.

What about the Control % [4] of the same molecule?
Its Control % is 28.3%.

What about the Control % [5] of the same molecule?
Its Control % is 23.3%.

`CCSC(C)CC1CC(=O)C(/C(CC)=N/OC/C=C/Cl)=C(O)C1` (stereo not shown) [Clethodim, clethodim] was tested. Which “% control” value [25] did it give?
Its value is 6.7%.

What about the “% control” value [26] of the same molecule?
Its value is 15%.

What about the “% control” value [27] of the same molecule?
Its value is 81.7%.

What about the “% control” value [28] of the same molecule?
Its value is 84.3%.

What does the source list for `O=C(O)COc1ccc(Cl)cc1Cl` [2,4-D]?
% control [14]: 5%; % control [15]: 4%; % control [16]: 6.7%; % control [17]: 5%; % control [18]: 5%; % control [19]: 0%

For `O=C(O)COc1nc(Cl)c(Cl)cc1Cl` [Triclopyr, triclopyr], which “% control” value [20] is on record?
The value was 8%.

What about the “% control” value [21] of the same molecule?
Its value is 13.3%.

What about the “% control” value [22] of the same molecule?
The value was 6.7%.

What about the “% control” value [23] of the same molecule?
The value was 6.7%.

And the “% control” value [24]?
The value was 6.7%.

Which results are given for `CCc1cnc(C2=NC(C)(C(C)C)C(=O)N2)c(C(=O)O)c1` (stereo not shown) [Imazethapyr, imazethapyr]?
Control % [1]: 8.3%; Control % [2]: 12%; Control % [3]: 12.7%; Control % [4]: 12.7%; Control % [5]: 10%
